Test results reported in publication PMC6222377, “Design, Synthesis, and Evaluation of Amphiphilic Cyclic and Linear Peptides Composed of Hydrophobic and Positively-Charged Amino Acids as Antibacterial Agents” (Molecules : A Journal of Synthetic Chemistry and Natural …, 2018).
≈ marks a conversion by molar mass, not a printed value. Where a SMILES comes first, the peptide text is derived from it. [ ]: non-standard residue; d: D form. Trp(1-Me) = Cn1cc(C[C@H](N)C(=O)O)c2ccccc21

Key:
E. coli (ATCC 25922) = assay: microbe, parasite or virus in culture; format: cell-based, Escherichia coli
Method: (§1) To evaluate the antibacterial activity of all the synthesized peptides, the minimum inhibitory concentration (MIC) was determined using the micro broth dilution method (Table 1), as per the Clinical Laboratory Standards Institute (CLSI). The MIC is a quantitative measurement of the minimum concentration of a compound required to inhibit visible bacterial growth. MIC values for all 20 peptides were measured against E. coli (ATCC 25922) and MRSA (Los Angeles County clone (LAC)) (Table 1). These two bacterial strains represent Gram-negative and Gram-positive pathogens. MRSA is one of the most challenging Gram-positive bacteria that leads to a life-threatening infection, while E. coli is a Gram-negative bacteria that has the ability to use gene mutations and multidrug efflux pumps that can result in multidrug resistance.
(§2) Two bacterial strains, methicillin-resistant Staphylococcus aureus (LAC) and Escherichia coli (ATCC 25922) were used for the evaluation of the antibacterial activities of the peptides. […] MRSA and E. coli were inoculated into Mueller Hinton (MH) broth (5 mL) at 37 °C. After shaking in an orbital shaker (175 rpm) overnight, the cultured suspension was diluted using normal saline (5 mL). […] An amount of 40 μL of the McFarland solution was then added to 5980 μL of MH media to afford 1/150 dilution. […] Minimal inhibitory concentrations (MIC) values were obtained using the broth micro dilution assay. In brief, first, the peptides and controls (200 μL) were added to the first column of the 96 well plate. Second, 2-fold serial dilutions of the compound were accomplished by adding media (100 μL) to other wells. After the serial dilution, the bacterial solution (100 μL) was added to all the wells. Finally, the microtiter plates were incubated statically at 37 °C overnight. MIC values were obtained by observing the minimal concentration at which bacterial growth was not visible. All the determinations were carried out in triplicate.

[1] = system: MRSA (Los Angeles County clone (LAC)); assay: microbe, parasite or virus in culture; format: cell-based, methicillin-resistant Staphylococcus aureus; settings: for MIC MRSA (LAC): Los Angeles County clone (LAC); for reduction of antibacterial activity compared with [R4W4]: comparison of MIC values with lead compound [R4W4]
Method: as §1, §2

Compound | MIC MRSA (LAC) [1] | MIC E. coli (ATCC 25922) (E. coli (ATCC 25922)) | further results
C[C@@H](O)[C@H]1C(=O)N2C(C(=O)O)=C(S[C@@H]3CN[C@H](C(=O)N(C)C)C3)[C@H](C)[C@H]12 [Meropenem, reference compound] | – | – | MIC (E. coli (ATCC 25922); Escherichia coli, ATCC25922, broth microdilution, Mueller Hinton broth, 37 °C overnight, visible growth, triplicate): 0.25 µg/mL (≈ 0.652 µM)
N=C(N)NCCC[C@H](NC(=O)[C@H](CCCNC(=N)N)NC(=O)[C@H](CCCNC(=N)N)NC(=O)[C@@H](N)CCCNC(=N)N)C(=O)N[C@@H](Cc1c[nH]c2ccccc12)C(=O)N[C@@H](Cc1c[nH]c2ccccc12)C(=O)N[C@@H](Cc1c[nH]c2ccccc12)C(=O)N[C@@H](Cc1c[nH]c2ccccc12)C(=O)N[C@@H](Cc1c[nH]c2ccccc12)C(=O)O [R4W5 (18)5] | 16 µg/mL (≈ 10.2 µM) | 32 µg/mL (≈ 20.3 µM) | –
CN[C@H](CC(C)C)C(=O)N[C@H]1C(=O)N[C@@H](CC(N)=O)C(=O)N[C@H]2C(=O)N[C@H]3C(=O)N[C@H](C(=O)N[C@H](C(=O)O)c4cc(O)cc(O)c4-c4cc3ccc4O)[C@H](O)c3ccc(c(Cl)c3)Oc3cc2cc(c3O[C@@H]2O[C@H](CO)[C@@H](O)[C@H](O)[C@H]2O[C@H]2C[C@](C)(N)[C@H](O)[C@H](C)O2)Oc2ccc(cc2Cl)[C@H]1O [Vancomycin, reference compound] | – | – | MIC ([1]; Staphylococcus aureus, MRSA, read-out: MIC MRSA (LAC)): 1 µg/mL (≈ 0.69 µM)
C[C@@H]1NC(=O)[C@H](C)NC(=O)[C@H](C)NC(=O)[C@H](CCCNC(=N)N)NC(=O)[C@H](CCCNC(=N)N)NC(=O)[C@H](CCCNC(=N)N)NC(=O)[C@H](CCCNC(=N)N)NC(=O)[C@H](C)NC1=O [[A4R4] (10)] (cyclo(AAAARRRR)) | >128 µg/mL | >128 µg/mL | –
N=C(N)NCCC[C@H]1NC(=O)[C@H](Cc2c[nH]c3ccccc23)NC(=O)[C@H](Cc2c[nH]c3ccccc23)NC(=O)[C@H](Cc2c[nH]c3ccccc23)NC(=O)[C@H](Cc2c[nH]c3ccccc23)NC(=O)[C@@H](CCCNC(=N)N)NC(=O)[C@@H](CCCNC(=N)N)NC(=O)[C@@H](CCCNC(=N)N)NC1=O [[DR4W4] (14)] (cyclo([dR][dR][dR][dR]WWWW)) | 8 µg/mL (≈ 5.84 µM) | 16 µg/mL (≈ 11.7 µM) | reduction of antibacterial activity compared with [R4W4] [1]: two-fold
O=C(O)CC[C@@H]1NC(=O)[C@H](CCC(=O)O)NC(=O)[C@H](CCC(=O)O)NC(=O)[C@H](Cc2c[nH]c3ccccc23)NC(=O)[C@H](Cc2c[nH]c3ccccc23)NC(=O)[C@H](Cc2c[nH]c3ccccc23)NC(=O)[C@H](Cc2c[nH]c3ccccc23)NC(=O)[C@H](CCC(=O)O)NC1=O [[E4W4] (16)] (cyclo(EEEEWWWW)) | >128 µg/mL | >128 µg/mL | antibacterial activity (in words) ([1]; text summary of MIC results): abolished the activity completely
N=C(N)NCCC[C@@H]1NC(=O)[C@H](CCCNC(=N)N)NC(=O)[C@H](CCCNC(=N)N)NC(=O)[C@H](Cc2ccccc2)NC(=O)[C@H](Cc2ccccc2)NC(=O)[C@H](Cc2ccccc2)NC(=O)[C@H](Cc2ccccc2)NC(=O)[C@H](CCCNC(=N)N)NC1=O [[F4R4] (9)] (cyclo(RRRRFFFF)) | >128 µg/mL | >128 µg/mL | –
CC[C@H](C)[C@@H]1NC(=O)[C@H](CCCNC(=N)N)NC(=O)[C@H](CCCNC(=N)N)NC(=O)[C@H](CCCNC(=N)N)NC(=O)[C@H](CCCNC(=N)N)NC(=O)[C@H]([C@@H](C)CC)NC(=O)[C@H]([C@@H](C)CC)NC(=O)[C@H]([C@@H](C)CC)NC1=O [[I4R4] (11)] (cyclo(IIIIRRRR)) | >128 µg/mL | >128 µg/mL | –
NCCCC[C@@H]1NC(=O)[C@H](CCCCN)NC(=O)[C@H](CCCCN)NC(=O)[C@H](Cc2c[nH]c3ccccc23)NC(=O)[C@H](Cc2c[nH]c3ccccc23)NC(=O)[C@H](Cc2c[nH]c3ccccc23)NC(=O)[C@H](Cc2c[nH]c3ccccc23)NC(=O)[C@H](CCCCN)NC1=O [[K4W4] (15)] (cyclo(KKKKWWWW)) | 8 µg/mL (≈ 6.36 µM) | 16 µg/mL (≈ 12.7 µM) | reduction of antibacterial activity compared with [R4W4] [1]: two-fold
CC(C)C[C@@H]1NC(=O)[C@H](CCCNC(=N)N)NC(=O)[C@H](CCCNC(=N)N)NC(=O)[C@H](CCCNC(=N)N)NC(=O)[C@H](CCCNC(=N)N)NC(=O)[C@H](CC(C)C)NC(=O)[C@H](CC(C)C)NC(=O)[C@H](CC(C)C)NC1=O [[L4R4] (12)] (cyclo(LLLLRRRR)) | >128 µg/mL | >128 µg/mL | –
N=C(N)NCCC[C@@H]1NC(=O)[C@H](CCCNC(=N)N)NC(=O)[C@H](CCCNC(=N)N)NC(=O)[C@H](CCCNC(=N)N)NC(=O)[C@H](Cc2c[nH]c3ccccc23)NC(=O)[C@H](Cc2c[nH]c3ccccc23)NC(=O)[C@H](Cc2c[nH]c3ccccc23)NC(=O)[C@H](Cc2c[nH]c3ccccc23)NC(=O)[C@H](Cc2c[nH]c3ccccc23)NC(=O)[C@H](CCCNC(=N)N)NC(=O)[C@H](CCCNC(=N)N)NC(=O)[C@H](CCCNC(=N)N)NC1=O [[R7W5] (17)] (cyclo(RRRRRRRWWWWW)) | 32 µg/mL (≈ 15.8 µM) | 64 µg/mL (≈ 31.6 µM) | –
N=C(N)NCCC[C@@H]1NC(=O)[C@H](CCCNC(=N)N)NC(=O)[C@H](CCCNC(=N)N)NC(=O)[C@H](CCCNC(=N)N)NC(=O)[C@H](Cc2c[nH]c3ccccc23)NC(=O)[C@H](Cc2c[nH]c3ccccc23)NC(=O)[C@H](Cc2c[nH]c3ccccc23)NC(=O)[C@H](Cc2c[nH]c3ccccc23)NC(=O)[C@H](Cc2c[nH]c3ccccc23)NC(=O)[C@H](Cc2c[nH]c3ccccc23)NC(=O)[C@H](CCCNC(=N)N)NC(=O)[C@H](CCCNC(=N)N)NC(=O)[C@H](CCCNC(=N)N)NC1=O [[R7W6] (19)] (cyclo(RRRRRRRWWWWWW)) | 16 µg/mL (≈ 7.24 µM) | 64 µg/mL (≈ 29 µM) | –
N=C(N)NCCC[C@@H]1NC(=O)[C@H](CCCNC(=N)N)NC(=O)[C@H](CCCNC(=N)N)NC(=O)[C@H](CCCNC(=N)N)NC(=O)[C@H](Cc2c[nH]c3ccccc23)NC(=O)[C@H](Cc2c[nH]c3ccccc23)NC(=O)[C@H](Cc2c[nH]c3ccccc23)NC(=O)[C@H](Cc2c[nH]c3ccccc23)NC(=O)[C@H](Cc2c[nH]c3ccccc23)NC(=O)[C@H](Cc2c[nH]c3ccccc23)NC(=O)[C@H](Cc2c[nH]c3ccccc23)NC(=O)[C@H](CCCNC(=N)N)NC(=O)[C@H](CCCNC(=N)N)NC(=O)[C@H](CCCNC(=N)N)NC1=O [[R7W7] (20)] (cyclo(RRRRRRRWWWWWWW)) | 8 µg/mL (≈ 3.34 µM) | 32 µg/mL (≈ 13.4 µM) | –
Cn1cc(C[C@@H]2NC(=O)[C@H](CCCNC(=N)N)NC(=O)[C@H](CCCNC(=N)N)NC(=O)[C@H](CCCNC(=N)N)NC(=O)[C@H](CCCNC(=N)N)NC(=O)[C@H](Cc3cn(C)c4ccccc34)NC(=O)[C@H](Cc3cn(C)c4ccccc34)NC(=O)[C@H](Cc3cn(C)c4ccccc34)NC2=O)c2ccccc21 [[W(Me)4R4] (13)] (cyclo([Trp(1-Me)][Trp(1-Me)][Trp(1-Me)][Trp(1-Me)]RRRR)) | 8 µg/mL (≈ 5.61 µM) | 16 µg/mL (≈ 11.2 µM) | –
N=C(N)NCCC[C@@H]1NC(=O)[C@H](CCCNC(=N)N)NC(=O)[C@H](CCCNC(=N)N)NC(=O)[C@H](Cc2ccc(O)cc2)NC(=O)[C@H](Cc2ccc(O)cc2)NC(=O)[C@H](Cc2ccc(O)cc2)NC(=O)[C@H](Cc2ccc(O)cc2)NC(=O)[C@H](CCCNC(=N)N)NC1=O [[Y4R4] (8)] (cyclo(YYYYRRRR)) | >128 µg/mL | >128 µg/mL | –
H-AAAARRRR-OH [A4R4 (2)] | >128 µg/mL | >128 µg/mL | –
H-FFFFRRRR-OH [F4R4 (3)] | >128 µg/mL | >128 µg/mL | –
H-IIIIRRRR-OH [I4R4 (5)] | >128 µg/mL | >128 µg/mL | –
H-LLLLRRRR-OH [L4R4 (4)] | >128 µg/mL | >128 µg/mL | –
H-RRRRWWWW-OH [R4W4 (1)] | 32 µg/mL | 64 µg/mL | –
H-YYYYRRRR-OH [Y4R4 (6)] | >128 µg/mL | >128 µg/mL | –
